Results on 32 compounds are retold here after publication PMC7504728, “Bioactivities of Lyngbyabellins from Cyanobacteria of Moorea and Okeania Genera” (Molecules, 2020).

Like-named read-outs stand apart in the source and are kept apart here.

For data set [1], the system named is Amphibalanus amphitrite barnacle larvae. The data set is described as follows: Antifouling (settlement inhibition) assay on A. amphitrite cyprids. The format is in vivo. As for the experimental part: As for all the compounds, the activity remained after 120 h of exposure.
The antifouling activity of the compounds was determined according to a procedure reported previously. Briefly, the newly developed cyprids of A. amphitrite were tested against several different concentrations of the isolated compounds (1–5) (0.03–10 μg/mL) in triplicate (n = 3). The assays were conducted using 24-well polystyrene culture plates, with each well containing 2 mL seawater and six cyprids. […] The total number of dead cyprids was counted after 120 h of exposure. Antifouling activity was expressed as an EC50 according to Probit analysis. CuSO4 was used as a positive control and 80% filtered (0.20 µm of pore filter) natural seawater (diluted with deionized water) as a negative control.

Data set [2] deals with MCF7 breast cancer cells. The data set is described as follows: Cytotoxicity MTT assay on MCF7 breast cancer cells. The format is cell-based, human. Conditions: MTT after 72 h incubation; for IC50: 37 °C, read-out: IC50, cytotoxicity with respect to MCF7 breast cancer cells. Here is the method:
The cytotoxicity of the compounds was determined according to a procedure reported previously. MCF7 breast cancer cells were maintained in RPMI-1640 medium with 10% fetal bovine serum (FBS). The cells were plated into 96-well plates with a density of 1.0 × 10^4 cells per well. After 24 h incubation, the cells were exposed to different concentrations of compounds, with cisplatin as a positive control and with 1% filtered ethanol as a negative control. The MTT assay was conducted after 72 h of incubation at 37 °C and 5% CO2.

In data set [3] the test system is HT29, HeLA, MCF7. Conditions: range over HT29, HeLA, MCF7 value from current study; cited from earlier work. The source says:
(§1) Table 2 Diversity of biological activities reported for Lyngbyabellins in the literature from 2000 to 2020. | column: IC50 (µM)

Data set [4] relates to Plasmodium. Conditions: antimalarial, cited from earlier work. From the text: Table 1 Structural diversity and antimalarial potential of secondary metabolites derived from cyanobacteria. | column: IC50 (µM)
Data set [5] relates to various cancer cell lines. Conditions: cited from earlier work. The source says:
(§2) As part of an effort to identify antiplasmodial and antifouling metabolites, two cyanobacteria from two geographically distinct environments were studied: a Malaysian Moorea bouillonii and a Red Sea Okeania sp. Moorea and Okeania genera were delineated from the Lyngbya genus. As phylogenetically close genera, they produce similar compounds. In this study, the lyngbyabellin family depsipeptides were isolated from Moorea bouillonii and Okeania sp. These kinds of compounds were initially found in the sea hare Dolabella auricularia after being identified from cyanobacterial origins as p ...

Data set [6] relates to Plasmodium. Conditions: antimalarial; pLDH; cited from earlier work.
From the text: as §2, with “Table 1 Structural diversity and antimalarial potential of secondary metabolites derived from cyanobacteria. | column: IC50 (µM) || As part” for “As part”

Data set [7] concerns HT29, HeLA, CA46, PtK2. Conditions: range over HT29, HeLA; cited from earlier work.
From the text: as §1

In data set [8] the test system is KB, LoVo. Conditions: range over KB; cited from earlier work.
From the text: as §1

In data set [9] the test system is KB. Conditions: cited from earlier work.
From the text: as §1

Data set [10] relates to H460, Neuro-2a. Conditions: range over H460, Neuro-2a; cited from earlier work.
From the text: as §1

Data set [11] concerns HT29, HeLA. Conditions: range over HT29, HeLA; cited from earlier work.
From the text: as §1

Data set [12] concerns H460. Conditions: cited from earlier work.
From the text: as §1

Data set [13] has as its system H460, HCT116. Conditions: range over H460, HCT116; cited from earlier work.
From the text: as §1

The test system of data set [14] is Plasmodium falciparum strain FCR-3. Kind of data set: Antiplasmodial assay, Giemsa staining. The format is cell-based. Here is the method: Compound 1 isolated from Okeania sp., and compounds 6 and 7 from M. bouillonii were tested against the malaria parasite (P. falciparum). […] The assay was repeated three times in the concentration range of 0.05–10 (μg/mL). It is noteworthy that the mechanisms of antiplasmodial compounds isolated from M. bouillonii impeding the growth of Plasmodium are still unclear. […] However, as 1 and 7 were reported as cytotoxic towards cancer cells, we hypothesized that they act in the same way on erythrocytes, which distorts the results of the antimalarial assay.
The Giemsa staining method previously described by Aydin-Schmidt was used to evaluate the ability of compounds to inhibit the malaria parasite. A synchronized culture of Plasmodium falciparum strain FCR-3, the late-ring stage, was used (parasitemia 2%) for this assay. A series of compound concentrations were applied in 96-well microplates and incubated for 72 h at 37 °C in a reduced oxygen atmosphere. Compounds 1, 6, and 7 were dissolved in DMSO and tested in triplicate at three separate times. Chloroquine was used as a positive control and cultured medium with 1% DMSO (final concentration of solvent in all compound tested) as a negative control. Each assay was conducted in triplicate (n = 3). After 72 h, the parasitic level was evaluated by Giemsa and light microscopy. The inhibition level of compounds against Plasmodium was calculated using the formula previously reported.

Data set [15] relates to P. falciparum (liver-stage). Conditions: cited from earlier work.
From the text: as §1

Data set [16] deals with HT29, HeLA, KB, LoVo. Conditions: range over HT29, HeLA; cited from earlier work.
From the text: as §1

Data set [17] relates to MCF7 breast cancer cells. Conditions: cited from earlier work. From the text: These differences in cytotoxicity were attributed to the dissimilarities in their structures.
Data set [18] has as its system Amphibalanus amphitrite barnacle larvae. Set-up: method as in PMID 29019684. Conditions: A.amphitrite barnacle cypris; cited from earlier work.
Data set [19] concerns H460, Neuro-2a, MCF7. Conditions: range over H460, Neuro-2a, cited from earlier work.
From the text: as §1

The mark [20] stands for this setting: A.amphitrite barnacle cypris, current study.
The mark [21] stands for this setting: strain FCR-3, late-ring (intraerythrocytic) stage, parasitemia 2%, 72 h, 37 °C, 0.05–10 μg/mL, repeated three times, triplicate, read-out: IC50 against malaria parasite (P. falciparum).
[22] abbreviates: previous study, read-out: IC50, cytotoxicity with respect to MCF7 breast cancer cells.

A word on the EC50: it is the concentration at which the effect is half-maximal. In general, IC50 refers to the point on the concentration scale where inhibition reaches its midpoint. Consider 27-deoxylyngbyabellin A [Compound 5], for which the EC50 in [1] (setting [20]) was 0.09 µg/mL. The “Toxicity to A.amphitrite barnacle cypris (remark in EC50 cell)” value in data set [1] (current study) is recorded as 0.09 (but toxic). The Toxicity to larvae entry in data set [1] (exposed to 1 µg/mL, dead cyprids counted after 120 h of exposure) is reported as “almost all the larvae were dead”. The IC50 in [2] was 310 nM; in data set [3], 7.3 to 310 nM.
With `C/C1=C/C(=O)O[C@H](C(C)(C)C)CCC[C@H](O)CCC[C@H](O)CCC[C@H](O)CCC[C@@H](O)C[C@@H](O)C[C@H](O)CCC[C@@H](O)CCC[C@@H](O)C[C@@H](O)CCCCC1` [Bastimolide A], the IC50 in data set [4] (Sybr Green) was 270 nM.
For the compound `C/C1=C/C(=O)O[C@H](CCC[C@@H](O)CCC[C@@H](O)CCC[C@@H](O)CCC[C@H](O)C(C)(C)C)C[C@@H](O)C[C@H](O)CCC[C@@H](O)CCC[C@@H](O)C[C@@H](O)CCCCC1` [Bastimolide B], the half-inhibitory concentration (IC50) in data set [4] (Pico-Green) was 5700 nM.
Consider Carmabin A, for which the IC50 in data set [4] (Pico-Green) is 4300 nM.
For Companeramide A, the IC50 in data set [4] (Sybr Green) is 5700 nM.
As for Dolastatin 10, the “Selectivity index against various cancer cell lines” value in data set [5] is recorded as at most 1. In addition, the IC50 in data set [6] is 0.1 nM.
As to Dolastatin 15, in data set [6], the IC50 was 2.4 nM.
As to Dragomabin, the IC50 in data set [4] (Pico-Green) is 6000 nM.
Consider Gallinamide A, for which the IC50 in [4] (Pico-Green) is 8400 nM.
Regarding Hoshinoamide A, the IC50 in [6] was 5200 nM.
Take Ikoamide: the half-maximal inhibitory concentration (IC50) in data set [6] is 140 nM.
Kakeromamide B: the IC50 in data set [4] (Sybr Green) was 8900 nM.
On to Lyngbyabellin B, for which the IC50 in data set [7] was 100 to 1100 nM.
Turning to Lyngbyabellin C, in data set [8], the IC50 is 2100 to 5300 nM.
Consider Lyngbyabellin D, for which the IC50 in data set [9] was 100 nM.
For the compound Lyngbyabellin E, in data set [10], the IC50 was 400 to 1200 nM.
Turning to Lyngbyabellin F, in data set [10], the IC50 was 1000 to 1800 nM.
As to Lyngbyabellin I, the IC50 in data set [10] is 700 to 1000 nM.
As for Lyngbyabellin J, the IC50 in data set [11] is 41 to 54 nM.
On to Lyngbyabellin K, for which the “IC50 (µM)” value in [12] was “Inactive”.
Regarding Lyngbyabellin L, the “IC50 (µM)” value in data set [12] is “Inactive”.
For Lyngbyabellin M, the “IC50 (µM)” value in data set [12] is “Inactive”.
As to Lyngbyabellin N, the IC50 in data set [13] was 4.8 to 1800 nM.
Take Mabunamide: the IC50 in [6] was 1400 nM.
For Ulongamide A, in [4] (Sybr Green), the IC50 is 990 nM.
Venturamide A: the IC50 in data set [4] (Pico-Green) was 8200 nM.
With homohydroxydolabellin [Compound 6], in data set [2], the “Cytotoxicity towards MCF7 cells” value is above 50 µg/mL and the “Cytotoxicity with respect to MCF7 breast cancer cells (in words)” value was “non-cytotoxicity”. Also, in data set [14] (setting [21]), the half-maximal inhibitory concentration (IC50) was determined as 6400 nM.
Take lyngbyabellin A [Compound 7]: the IC50 in data set [14] (P.falciparum (intraerythrocytic stage), current study, read-out: IC50) was 300 nM; in data set [15] it was 1.5 nM; in [16], 21 to 345 nM; in data set [4] (Sybr Green), 1.5 nM.
In the case of lyngbyabellin G [Compound 1], the values for the IC50 in data set [17] (setting [22]), in data set [14] (setting [21]) and in data set [19] were 120000 nM, 1100 nM and 2200 to 120000 nM, respectively. For the same compound, the “EC50” value in [18] is reported as 4.41 µg/mL.
Take lyngbyabellin H [Compound 4]: the “Antifouling activity at 10 µg/mL” value in data set [1] (10 µg/mL, 48 h exposure, triplicate (n = 3)) was “inactive”. Besides, the “EC50(µg/mL)” value in data set [1] (setting [20]) is “Inactive”. For the same compound, the IC50 is 70 nM in data set [2] and 70 to 1400 nM in data set [19] (MCF7 value from current study).
For lyngbyabellin O [Compound 2], the “IC50 (µM)” value in data set [17] (MCF7) is reported as “Inactive”. In addition, in [17] (setting [22]), the IC50 was above 160000 nM. In data set [18], the “EC50” value is 0.24 µg/mL.
lyngbyabellin P [Compound 3]: in data set [17] (MCF7, read-out: IC50), the IC50 was 9000 nM. For the same compound, the “EC50” value in [18] is recorded as 0.62 µg/mL.
